Reference: patent US20240239883A1, “METHODS OF TREATING HOMOLOGOUS RECOMBINATION DEFICIENT CANCER” (ASTRAZENECA AB, priority 2020, published 2024)
Values joined by “and” are separate entries in the source; they are usually repeats but may differ in a detail not shown here. Equal values may be shown once.

Experiments:
[1] = test system: patients with newly diagnosed, FIGO stage III-IV, high-grade serous or endometrioid ovarian cancer, fallopian tube or primary peritoneal cancer; test: PAOLA-1/ENGOT-ov25 phase III trial, first line maintenance: progression-free survival and other efficacy variables; type: in vivo, human
Procedure: Olaparib tablets orally 300 mg twice daily (bd) • 2. Placebo tablets orally 300 mg bd
Patients included in the study were female patients with newly diagnosed advanced (FIGO (International Federation of Gynaecology and Obstetrics) Stage IIIB, IIIC or IV) ovarian cancer, primary peritoneal cancer and/or fallopian tube cancer that was histologically confirmed as: (a) high-grade serous, or (b) high-grade endometrioid, or (c) other epithelial non mucinous ovarian cancer in a patient with gBRCA1 or 2 deleterious mutation.
Additionally, patents had completed first line platinum-taxane chemotherapy prior to randomization. Specifically, the platinum-taxane based regimen consisted of a minimum of 6 and a maximum of 9 treatment cycles; however, if platinum-based therapy was discontinued early as a result of non-haematological toxicity specifically related to the platinum regimen, (i.e., neurotoxicity, hypersensitivity, etc.), patients must have received a minimum of 4 cycles of the platinum regimen. Intravenous, intraperitoneal, or neoadjuvant platinum based chemotherapy was also allowed; for weekly therapy, 3 weeks was considered to be 1 cycle.
Prior to randomization, patients had no evidence of disease (NED) or had been in clinical complete response (CR) or in partial response (PR) following first line treatment. There should have been no clinical evidence of disease progression (physical exam, imaging, or cancer antigen-125 (CA-125)) throughout the first line treatment and prior to study randomization.
Finally, patients were randomized at least 3 weeks and no more than 9 weeks after their last dose of chemotherapy (last dose is the day of the last infusion) and all major toxicities from the previous chemotherapy were resolved.
Tumor samples from the patients were tested post-randomization (but prior to database lock) using the Myriad myChoice® HRD Plus test in order to investigate efficacy in pre-defined biomarker subgroups. The Myriad myChoice® HRD Plus test is delivered from a single central laboratory in Salt Lake City, Utah; it detects and classifies the following biomarkers simultaneously in tumor tissue:
Myriad HRD status is based on the Myriad HRD score and tBRCAm status. A positive Myriad HRD status is determined either by presence of a tBRCA1/2 mutation or by an HRD score at or above a pre-specified cut-off in the absence of a BRCA1/2 mutation. The Myriad HRD cut-off of 42 detects 95% of BRCAm tumors and has been extensively investigated as a biomarker of PARP inhibitor benefit in ovarian cancer. The cut-off of 42 has now been FDA-approved for another PARP inhibitor for the treatment of relapsed ovarian cancer (Myriad myChoice® HRD test offered under the name myChoice® CDx). Reducing the cut-off to 33, enables detection of 99% of BRCAm tumors and retrospective analyses from 2 clinical studies raised the possibility that a 33 cut-off may provide greater precision in determining patients who may benefit from PARP inhibitor treatment.
The data cut-off (DCO) for the analysis of progression-free survival (PFS) PFS is time from randomization to first progression or death according to modified Response Evaluation Criteria in Solid Tumours (RECIST version 1.1). PFS took place when 474 progression events had occurred (58.8% maturity), approximately 45 months after the first patient was randomized. At this DCO, all efficacy, QoL and safety variables were analyzed, as appropriate, based on the amount of data available at that time.
PFS (based on investigator assessment) was the primary variable for the study and was analyzed based on the primary data cut-off using the investigator assessment population.

[2] = in vivo
Procedure: The study design was put into practice as the PAOLA-1/ENGOT-ov25 trial (NCT02477644), which was a randomised, double-blind, international phase III trial that enrolled patients with newly diagnosed, FIGO stage III-IV, high-grade serous or endometrioid ovarian cancer, fallopian tube or primary peritoneal cancer.
Patients were randomized in a 2:1 ratio to the treatments as specified below: • 1. Olaparib tablets orally 300 mg twice daily (bd) • 2. Placebo tablets orally 300 mg bd
The “overall study duration” phase was defined as from the first dose of olaparib or placebo until the last dose of olaparib or placebo+30 days (to account for the 30 day follow-up period).
Common Terminology Criteria for Adverse Events (CTCAE) (version 4.03) defines Grade 1 hypertension as having systolic BP 120-139 mmHg or diastolic BP 80-89 mm Hg; Grade 2 as having systolic BP 140-159 mmHg or diastolic BP 90-99 mm Hg, or recurrent or persistent (≥24 hrs) symptomatic increase by >20 mm Hg (diastolic) or to >140/90 mmHg; Grade 3 as having systolic BP ≥160 mmHg or diastolic BP ≥100 mmHg; Grade 4 hypertension as having life-threatening consequences, e.g., requiring urgent intervention; and Grade 5 hypertension as death.
An adverse event considered “serious” if, in the view of either the investigator or sponsor, it results in any of the following outcomes: death, a life-threatening adverse event, inpatient hospitalization or prolongation of existing hospitalization, or a persistent or significant incapacity or substantial disruption of the ability to conduct normal life functions.
Common Terminology Criteria for Adverse Events (CTCAE) (version 4.03) defines Grade 1 proteinuria as urine dipstick 1+ or <1.0 grams of protein per 24 hours; Grade 2 as urine dipstick 2+ or 1.0-3.4 grams of protein per 24 hours; Grade 3 as urine dipstick 4+ or ≥3.5 grams of protein per 24 hours.

[3] = cited from earlier work
[4] = overall population, KM estimate
[5] = overall population, KM estimate, listed as placebo-plus-bevacizumab
[6] = overall population, KM estimate, listed as placebo/bevacizumab

## O=C(c1cc(Cc2n[nH]c(=O)c3ccccc23)ccc1F)N1CCN(C(=O)C2CC2)CC1 [olaparib, 4-[(3-{[4-(cyclopropane-carbonyl)piperazine-1-yl]carbonyl}-4-fluorophenyl)methyl]-2H-phthalazin-1-one]
[1]; overall subject population, olaparib in addition to bevacizumab
  progression free survival greater than for subjects receiving bevacizumab alone: at least 4 months

## Placebo/bevacizumab: Comparator arm: placebo tablets plus bevacizumab 15 mg/kg every 3 weeks (bevacizumab alone, without olaparib)
[1]; PFS2 data 39.1% mature
  patients not classified as having had a second progression at the time of analysis (PFS2): 55.8%
[1]; all patients
  median time until the first subsequent treatment: 18.5 months
[1]; interim analysis of second progression-free survival, data maturity 39%, Kaplan-Meier estimate
  rate of freedom from second disease progression and death at 18 months: 80%
[1]; overall population
  patients for whom progression occurred on treatment: 71.6%
  patients not classified as having progressed at the time of analysis: 27.9%
[1]; overall population (FAS), investigator assessment, modified RECIST 1.1 or death, primary data cut-off
  n (%) of events (PFS): 194 (72.1) n (%)
[1]; [4]
  Progression free at 6 months: 85.3%
  Progression free at 12 months: 65.6%
  Progression free at 18 months: 45.8%
  Progression free at 24 months: 27.7%
[1]; [5]
  Progression free at 12 months: 66%
  Progression free at 18 months: 46%
  Progression free at 24 months: 28%
[1]; [6]
  Progression free at 12 months: 65.6%
  Progression free at 24 months: 27.7%
[1]; overall population, KM techniques
  Median PFS (95% CI): 16.6 months and 16.6 (15.4, 18.6) months
[1]; overall population, at data cut-off (474 events, 58.8% maturity)
  proportion of patients with PFS events: 72.1%
[1]; patients with HRD-negative tumors (277 patients)
  median progression-free survival: 16.2 months
[1]; patients with HRD-negative tumors or whose tumor HRD status was unknown (419 patients)
  median progression-free survival: 16.0 months
[1]; patients with HRD-positive tumors that did not have BRCA mutations (FIG. 3D)
  median progression-free survival: 16.6 months
[1]; patients with a tumor BRCA mutation (FIG. 3A)
  median progression-free survival: 21.7 months
[1]; patients with tumors positive for HRD (score ≥42 on myChoice HRD Plus or tumor BRCA mutation) (FIG. 3C)
  median progression-free survival: 17.7 months
[1]; patients without a tumor BRCA mutation (FIG. 3B)
  median progression-free survival: 16.0 months
[2]
  Hypertension (serious adverse events): 35 (13.1) Number (%) of patients
  Hypertension CTCAE all Grades: 160 (59.9) Number (%) of patients
  Proteinuria CTCAE Grade 3 or higher: 1 (0.4) Number (%) of patients
  Proteinuria CTCAE all Grades: 40 (15.0) Number (%) of patients
  Vascular disorders (serious adverse events): 35 (13.1) Number (%) of patients
  adverse drug reactions of proteinuria: 15.4%
  patients who reported adverse events (AEs): 95.9%

## bevacizumab: recombinant humanized monoclonal IgG1 antibody, vascular endothelial growth factor inhibitor
[2]
  incidence of CTCAE Grade ≥3 hypertension: about 30%
[3]; Study BO17705
  overall incidence of proteinuria (all grades): 20%
[3]; after median follow-up of 11.2 months
  patients in whom proteinuria did not resolve: 40%
[3]; of the patients who developed proteinuria
  proteinuria required discontinuation of bevacizumab: 30%
